According to US9687548B2, “Photoactivatable caged tamoxifen and tamoxifen derivative molecules and methods of use thereof” (Dana-Farber Cancer Institute, Inc., priority 2012, dated 2017):
Entries after “also recorded” stand apart in the source; their conditions may differ.

Experiments:
CreER fusion protein = target: T1, CreER fusion protein (Homo sapiens, UniProt P03372, G400V/L544A/M543A); assay: X-gal (lacZ) reporter in MEFs from Rosa26CreERT2; R26R (Lox-STOP-Lox-lacZ) embryos; format: cell-based, mouse; details: with vs without 365 nm UV light exposure; X-gal stained MEFs
T1 construct: host or cells: cells and tissues (MEFs, mammary epithelial acini, skin, mammary gland) of heterozygous Rosa26CreER^T2 knock-in reporter mice; the other entry of the earlier key: cre (P06956, Recombinase cre)
T1 sequence (P03372 with tags, fused parts or gaps G400V/M543A/L544A): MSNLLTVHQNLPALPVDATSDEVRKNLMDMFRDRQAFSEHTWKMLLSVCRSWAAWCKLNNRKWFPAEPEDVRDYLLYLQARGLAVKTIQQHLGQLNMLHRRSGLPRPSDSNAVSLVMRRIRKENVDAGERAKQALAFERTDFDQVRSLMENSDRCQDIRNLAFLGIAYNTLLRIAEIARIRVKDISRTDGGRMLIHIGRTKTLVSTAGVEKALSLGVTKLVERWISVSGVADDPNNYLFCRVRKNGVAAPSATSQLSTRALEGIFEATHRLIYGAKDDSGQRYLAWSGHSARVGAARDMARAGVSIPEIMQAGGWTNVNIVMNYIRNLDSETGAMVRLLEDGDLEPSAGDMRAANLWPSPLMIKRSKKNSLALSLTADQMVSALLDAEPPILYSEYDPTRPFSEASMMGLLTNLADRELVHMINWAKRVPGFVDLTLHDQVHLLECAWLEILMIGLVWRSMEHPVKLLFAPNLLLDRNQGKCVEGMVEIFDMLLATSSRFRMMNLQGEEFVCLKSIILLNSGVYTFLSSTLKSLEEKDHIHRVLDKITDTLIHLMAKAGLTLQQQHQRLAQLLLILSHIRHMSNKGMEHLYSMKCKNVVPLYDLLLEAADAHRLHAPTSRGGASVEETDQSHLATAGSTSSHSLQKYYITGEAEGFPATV
Method: (§1) Mouse embryonic fibroblasts (MEFs) were isolated as described (Sharpless et al., Mol. Cell 8:1187-1196, 2001) and grown in DMEM with 10% FBS. To shed UV light on the cells, the cells were first grown in 60-mm dish overnight to become nearly confluent. The next day, the medium was replaced with medium containing caged 4-OHC at 5 μM and incubated for 30 minutes. The cells were washed twice quickly with warm PBS and covered with fresh medium. The dish was placed on the UV emission surface of a handheld 6 W long-wavelength UV lamp (UVP, LLC), and UV light was kept on for a designated period of time. The cells were put back into the incubator to culture for 48-72 h before live imaging or flow cytometric analysis.
Mouse embryonic fibroblasts (MEFs) isolated from the Rosa26CreER^T2; mT/mG mice in cell culture were used to test the caged 4-OHC activity. The Rosa26CreER^T2; mT/mG MEFs were treated with either 4-OHC or caged 4-OHC and illuminated at 365 nm. […] To further test the caged 4-OHC, another reporter mouse was generated (Rosa26CreER^T2; R26R mice). The Rosa26CreER^T2; R26R mice were generated by crossing homozygous Rosa26CreER^T2 mice with homozygous Rosa26-loxP-STOP-loxP-lacZ mice (experimental system shown in FIG. 9).
An additional set of experiments were performed to test the ability of Caged Molecules I, II, and III (shown in Schematic #5) to induce nuclear translocation of a ER fusion protein in a cell following light exposure. Mouse embryonic fibroblasts from Rosa26-CreER^T2; Lox-STOP-Lox-lacZ embryos were treated with 5 μM 4-OHC (positive control; lower left panel), treat Caged Molecule I (“Compound I”) with or without 365 nm UV light exposure (top right and top center panels, respectively), Caged Molecule II (“Compound II”) with or without 365 nm UV light exposure (middle right and middle center panels, respectively), or Caged Molecule III (“Compound III”) with or without 365 UV light exposure (bottom right and […] panels, respectively).

CreER [1] = target: T2, CreER (Homo sapiens, UniProt P03372, G400V/L544A/M543A); assay: In vivo photoactivation in mammary gland of female Rosa26CreERT2; mT/mG mice (ex vivo IV-110 imaging); set-up: species or system mouse
T2 construct: host or cells: cells and tissues (MEFs, mammary epithelial acini, skin, mammary gland) of heterozygous Rosa26CreER^T2 knock-in reporter mice; the other entry of the earlier key: cre (P06956, Recombinase cre)
T2 sequence (P03372 with tags, fused parts or gaps G400V/M543A/L544A): T1 sequence (P03372 with tags, fused parts or gaps G400V/M543A/L544A)
Method: (§2) Female mice of 6-8 weeks old were clean shaven on the dorsal and ventral sides. The caged 4-OHC was dissolved in 20% Solutol for in vivo delivery. The vehicle or 1 mg caged 4-OHC in vehicle was injected intraperitoneally. One hour later, the mice were anesthetized with isoflurane and exposed to UV light from the hand-held 6 W long-wavelength UV lamp (UVP, LLC) for 15 minutes. Alternatively, for mammary tissue illumination, the right inguinal (#4) mammary fat pad was exposed by creating a small skin flap and illumination with UV light for 15 minutes. For enhanced photoconversion, this procedure was repeated four times. On the seventh day, the mice were imaged with Olympus OV-110 epifluorescence imager (Thurber et al., PLoS One 4:e8053, 2009) to detect fluorescent signals emitted from the skin on the dorsal and ventral sides. Alternatively, the left and right mammary glands were dissected and immediately imaged using the intravital laser scanning microscope IV-110 (Kelly et al., PLoS Med. 5:e85, 2008).

CreER [2] = target: T2, CreER; assay: Photoactivated EGFP expression in MEFs from Rosa26CreERT2; mT/mG mice; format: cell-based, mouse; details: 5 μM, 365 nm illumination vs no light
Method: as §1
A recently developed double-fluorescent Cre reporter mouse, the mT/mG strain (Muzumdar, Genesis 45:593, 2007) was used to design a biological system that can faithfully report on the induced activity of CreER. This mouse model expresses tdTomato prior to and EGFP following Cre-mediated recombination ubiquitously in tissues. […] The photoinduced activity of caged tamoxifen and caged tamoxifen derivative molecules can be assessed by illuminating the cells and tissues from these mice and looking for EGFP-expressed cells (FIG. 1).

CreER [3] = target: T2, CreER; assay: Photoactivated EGFP expression in mammary acinus 3D culture from Rosa26CreERT2; mT/mG mice; format: cell-based, mouse; details: 5 μM, 1 min UV lamp or 60× objective DAPI filter
Method: Mouse mammary epithelial cells […] were isolated from 6-8 week old female Rosa26CreER^T2; mT/mG mice as previously described (Tiede et al., PLoS One 4:e8035, 2009). Briefly, mammary glands were excised, minced using scalpels, and digested for 1 hour in 300 U/mL type 1A collagenase (Sigma) and 100 U/mL hyaluronidase (Sigma). The cells were then treated with 0.25% trypsin/EDTA, dispase (Invitrogen)/DNase (Sigma), and ACK lysing buffer (Invitrogen) in succession. Between each treatment, cells were rinsed in MEGM (1:1 DMEM:F12 Ham supplemented with […], 500 ng/mL hydrocortisone, 10 ng/mL EGF, 20 ng/mL cholera toxin, 5% bovine calf serum, and 1× penicillin/streptomycin). Afterwards, cells were filtered twice through […] nylon cell strainers and seeded in 35-mm dishes that contained a layer of Growth Factor Reduced Matrigel (BD Biosciences) measuring approximately 1-2 mm thickness. Acini usually formed in 4-8 days. During photoactivation, the acini were incubated with MEGM containing 5 μM caged 4-OHC for 1 hour. The cells were washed twice quickly with warm PBS and covered with fresh medium. The dish was placed on the UV emission surface of a hand-held 6 W long-wavelength UV lamp (UVP, LLC, exposure time: 1 minute) or above the 60× objective of an inverted epifluorescent microscope equipped with a standard DAPI filter set. […]

CreER [4] = target: T2, CreER; assay: In vivo photoactivation in skin of Rosa26CreERT2; mT/mG mice (OV-110 imaging); set-up: species or system mouse
Method: as §2

[5] = UV-Vis and HPLC-MS characterization of the photocleavage of caged 4-OHC; format: physicochemical
Method: A 0.25 mM solution of caged 4-OHC in 1:1 (v/v) water:acetonitrile was used for the UV-Vis spectroscopic characterization of the photocleavage reaction. The solution of the caged 4-OHC was placed in a 96-well black clear bottom microplate. The solution was then irradiated at ˜365 nm using a hand-held UV lamp. After light exposure, UV-Vis spectra of the solution was recorded in a TECAN microplate reader. A time course of the photocleavage reaction was monitored by exposing the caged 4-OHC solution to light for different durations, and subsequently recording the UV-Vis spectra of the solution.
A 2.0 mM solution of caged 4-OHC in 1:1 (v/v) water: acetonitrile was used for the HPLC-MS study. The solution of the caged 4-OHC was placed in a glass vial and irradiated at ˜365 nm using a hand-held UV lamp. Aliquots were taken at different time intervals and injected to the HPLC-MS machine for analysis. Prism 5 (GraphPad, La Jolla, Calif.) for Mac was used to plot the data.

[6] = Stability of caged molecule in the absence of light; format: physicochemical; details: in the dark / prior to illumination
[7] = 4-OHC compared with 4-OHT; cited from earlier work

For `CCOc1c(OC)cc([N+](=O)[O-])c(COc2ccc(C(=C3CCCCC3)c3ccc(OCCN(C)C)cc3)cc2)c1[N+](=O)[O-]` [Caged Molecule I], the “nuclear translocation / nuclear transport of the ER fusion protein” value (CreER fusion protein) was “resulted in an increase in the nuclear transport of the ER fusion protein”.
With `COc1cc(C(C)Oc2ccc(C(=C3CCCCC3)c3ccc(OCCN(C)C)cc3)cc2)c([N+](=O)[O-])cc1OC` (stereo not drawn) [caged 4-OHC, 1-(4,5-dimethoxy-2-nitrophenyl) ethanol (DMNPE) caged 4-hydroxycyclofen] the “EGFP induction in illuminated right vs non-illuminated left mammary gland” value (CreER [1]; intraperitoneal, 365 nm light on right mammary gland, seven days later) was “the right, but not the left, mammary gland showed strong EGFP induction; also recorded: expressed EGFP”, the “diffusion after uncaging to other organs” value (CreER [1]; skin and mammary gland data taken together) was “limited diffusion after uncaging” and the “EGFP expression after photocleavage” value (CreER [2]) was “induced EGFP expression in a stringent fashion”. For the same compound, the “EGFP expression in response to photoactivation” value (CreER [3]) was “very tight control of EGFP expression in response to photoactivation”, the “EGFP signal on illuminated ventral vs non-illuminated dorsal skin” value (CreER [4]; intraperitoneal, UV illumination only on ventral skin) was “EGFP signal was observed on the ventral skin but not on the dorsal skin” and the “average increase in fluorescence intensity” value (CreER [4]; intraperitoneal, ventral skin UV illuminated) was 2.5 fold. The “conversion to / release of 4-OHC upon UV irradiation” value ([5]; HPLC-MS, ~365 nm, 2.0 mM in water:acetonitrile 1:1) was “quantitative, unidirectional conversion to 4-OHC; also recorded: quantitative release of 4-OHC”, the “time to completion of photochemical (photocleavage) reaction” value ([5]; hand-held 365 nm UV lamp, UV-Vis, water:acetonitrile 1:1) was no more than 10 min and the “breakdown in the absence of light exposure” value [6] was “did not appear to show any sign of breakdown prior to illumination”.
In the case of `CN(C)CCOc1ccc(C(=C2CCCCC2)c2ccc(O)cc2)cc1` [4-OHC, 4-hydroxycyclofen, reference compound], the “EGFP signal at whole mouse level” value (CreER [4]; treated with 4-OHC (uncaged)) is given as “strong EGFP signal was detected” and the photostability [7] is given as “better photostability”.
For `CCOC(=O)COc1c(OC)cc([N+](=O)[O-])c(COc2ccc(C(=C3CCCCC3)c3ccc(OCCN(C)C)cc3)cc2)c1[N+](=O)[O-]` [Caged Molecule II], the “nuclear translocation / nuclear transport of the ER fusion protein” value (CreER fusion protein) was “resulted in an increase in the nuclear transport of the ER fusion protein”.
With “4-hydrocyclofen conjugated with the photoactivatable 4,5-demethoxy-2-nitrophen methanol (DMNPM) group [DMNPM caged 4-hydroxycyclofen, reference compound]” the “breakdown in the absence of light exposure” value [6] was “spontaneous breakdown in the absence of appropriate light exposure”.
In the case of `COc1ccc(-c2ccc([N+](=O)[O-])c(C(C)COc3ccc(C(=C4CCCCC4)c4ccc(OCCN(C)C)cc4)cc3)c2)cc1` (stereo not drawn) [Caged Molecule III], the “nuclear translocation / nuclear transport of the ER fusion protein” value (CreER fusion protein) is reported as “resulted in an increase in the nuclear transport of the ER fusion protein”.
